Experiments:
K-562 = assay: Cell Titer-Glo cell viability, K-562; format: cell-based; conditions: Homo sapiens, K562; 120 h, ± standard deviation, three biological repeats; read-out: IC50 cell viability K-562
C-terminal His-tag-HDAC8 = target: T1, C-terminal His-tag-HDAC8 (Homo sapiens, UniProt Q9BY41); assay: HDAC-Glo I/II enzyme assay, HDAC8; format: biochemical; conditions: ± standard error, three independent measurements
T1 construct: His (C); purchased BPS Bioscience 50008
T1 sequence (Q9BY41 1-377): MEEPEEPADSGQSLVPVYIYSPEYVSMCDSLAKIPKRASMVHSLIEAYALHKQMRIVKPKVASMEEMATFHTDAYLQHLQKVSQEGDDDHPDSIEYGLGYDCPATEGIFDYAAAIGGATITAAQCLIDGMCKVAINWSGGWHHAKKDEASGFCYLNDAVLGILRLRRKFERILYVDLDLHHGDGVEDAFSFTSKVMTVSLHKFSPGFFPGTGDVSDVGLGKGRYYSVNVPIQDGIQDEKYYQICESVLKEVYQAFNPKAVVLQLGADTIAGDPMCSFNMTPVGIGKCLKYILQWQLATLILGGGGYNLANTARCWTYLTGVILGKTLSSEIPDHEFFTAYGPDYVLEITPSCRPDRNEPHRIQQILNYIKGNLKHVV

DU-145 = assay: Wound healing assay, DU-145; format: cell-based; conditions: 4 μM, 72 h, 1% FBS
Method: Figure S20. Wound healing assay with iDual and ricolinostat. (A) MDA-MB-231 and (B) DU-145 […]
and ricolinostat for 72 h cells grown in relative medium with (1%) FBS conditions. Wound healing is photographed with Nikon Eclipse TS 100 microscope. Wound/healed area is quantified using Image […]

LSD1 [1] = target: T2, LSD1 (Homo sapiens, UniProt O60341); assay: Cellular thermal shift assay (CETSA), LSD1; format: cell-based; parameters: endogenous in cells; host or cells: THP-1; conditions: THP-1 cells, 1 h; 4 μM (methods, Figure 2), Figure S14 legend 500 nM
Method: THP-1 cells, 1 × 10^7 cells at a density of 1 × 10^6 cells/mL, were treated with 4 μM of test compounds (1 h, 37 °C, 5% CO2). Cells were centrifuged, and the pellet was resuspended with 1 × Phosphate Buffer Saline (Gibco, Grand Island, NY, USA, #10010023) containing 1 × Protease Inhibitor Cocktail (Cell Signaling Technology, Beverly, MA, USA, #5871) and 1 mM phenylmethylsulfonyl fluoride (PMSF, Sigma Aldrich, St. Louis, MO, USA, #10837091001). The suspension volume was divided equally and heated for 3 min at 43–64 °C in a T100 Thermal Cycler (Bio-rad, Hercules, CA, USA). For protein extraction, cells were snap-frozen using liquid nitrogen, thawed twice (25 °C, 1 min), then centrifuged (20,000× g, 15 min, 4 °C). Following centrifugation, protein containing supernatants were denatured at 70 °C for 10 min and loaded on SDS-PAGE gels (Bio-Rad, Hercules, CA, USA, 161-0317). After electrophoresis (100 V and 60 min), proteins were transferred onto PVDF membrane (Bio-Rad #1620177) at 200 mA for 180 min and immunoblotted with primary antibodies (1:10,000 dilution for anti-LSD1 Antibody ab129195 [EPR6825], 1:1000 dilution for Anti-HDAC6 Antibody CST 7558, 1:1000 dilution for Anti-HDAC1 Antibody ab53091, 1:1000 dilution for Anti-HDAC8 Antibody ab187139, 1:5000 dilution for Anti-beta Actin Antibody ab8227) overnight at 4 °C. The next day, membranes were incubated with HRP-conjugated secondary antibodies (1:5000 dilution for Abcam, Cambridge, UK, ab205718) for 1 h at room temperature. The signal was detected with BIORAD Chemi-Doc XRS+ System and by using Immobilon Forte Western HRP Substrate (WBLUF0500).

normal RPE-1 cells = assay: Cell viability of normal RPE-1 cells (CTG); format: cell-based; conditions: 120 h
THP-1 cells [2] = assay: Caspase 3/7 and 7-AAD staining (flow cytometry); conditions: sublethal concentration (5 μM)
THP-1 cells [3] = assay: Annexin V/7-AAD staining (flow cytometry); format: cell-based; conditions: sublethal concentration (5 μM)
Method: Treated cells were centrifuged at 300× g for 5 min, and the pellet was resuspended with 1% FBS in PBS (5 × 10^5 cells/mL). Annexin V dye (Merck Millipore, Burlington, MA, USA, MCH100105) was mixed with the cell suspension in a 1:1 ratio and the mixture incubated at RT for 20 min.

THP-1 cells [4] = assay: RT-qPCR gene expression in THP-1 cells; format: cell-based; conditions: for p21 mRNA expression: THP-1 cells, 1 μM, 24 h
Method: NucleoSpin™ RNA Plus Isolation Kit (Macherey Nagel™, Dueren, Germany, 740955.50) and M-MLV Reverse Transcriptase kit (Thermo Fisher Scientific, Waltham, MA, USA, #28025013) protocols were employed for RNA isolation and cDNA synthesis, respectively, with 500 ng of RNA converted to cDNA for each sample. Gene expression levels were quantified with qRT–PCR method using a LightCycler 480 SYBR Green I Master (Roche Diagnostics, Penzberg, Germany, #50-720-3180) and normalized to β-actin or GAPDH. Briefly, 10 ng of cDNA template was amplified using 10 μL LightCycler 480 SYBR Green I Master (Roche Diagnostics), and gene-specific primers (Table S1) mixed in a final volume of 20 μL. The samples were incubated at 95 °C for 5 minutes, followed by 40 cycles of 95 °C for 10 seconds, 55 °C for 30 seconds, and 72 °C for 1 second. The relative amounts of gene expressions were calculated with the 2^(−ΔΔCT) method. All analyses were performed in duplicates and three biological replicas.
Figure 4 Assessment of biological activity through changes in methylation or acetylation and cell differentiation (A–C). Colored graphs illustrate epidrug targets and visualize expected outcomes upon target inhibition. Blue cylinders represent histone octomers (A,B) and green tubes represent microtubules (C). […] Histone methylation, histone acetylation, and α-tubulin acetylation levels were quantified from Western blot band intensities (Figure S18). Full Western blot images can be found in Figure S30. (D,E) Expression levels of mRNA were measured by RT-qPCR analysis and were normalized to two housekeeping genes, β-actin and GAPDH, for p21 and CD11b and CD86. […] Relative expression was determined with the 2(^−ΔΔCT) method, and the data are represented as the average ± standard error of the mean of two biological repeats with technical duplicates. (* p < 0.05, ** p < 0.01 student t-test). Illustrations were generated in BioRender.com.

HDAC-3/NcoR2 = target: T3, HDAC-3/NcoR2 (Homo sapiens, UniProt O15379); assay: HDAC-Glo I/II enzyme assay, HDAC3; format: biochemical; conditions: ± standard error, three independent measurements
T3 construct: purchased BPS Bioscience 50003
T3 sequence (O15379 whole entry): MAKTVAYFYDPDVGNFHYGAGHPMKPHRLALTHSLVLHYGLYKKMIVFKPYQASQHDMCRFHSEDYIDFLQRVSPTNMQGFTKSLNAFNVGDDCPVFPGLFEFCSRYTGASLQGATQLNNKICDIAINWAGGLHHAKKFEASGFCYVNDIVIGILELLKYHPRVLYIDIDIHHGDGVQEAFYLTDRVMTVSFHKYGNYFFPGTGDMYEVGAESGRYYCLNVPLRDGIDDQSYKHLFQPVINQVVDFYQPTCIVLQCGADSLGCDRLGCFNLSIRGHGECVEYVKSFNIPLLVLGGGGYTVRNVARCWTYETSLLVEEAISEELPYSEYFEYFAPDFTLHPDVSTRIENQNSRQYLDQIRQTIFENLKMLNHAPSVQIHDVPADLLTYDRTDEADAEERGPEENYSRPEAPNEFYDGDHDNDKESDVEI
T3 sequence (Q9Y618 395-489 partner limits assumed): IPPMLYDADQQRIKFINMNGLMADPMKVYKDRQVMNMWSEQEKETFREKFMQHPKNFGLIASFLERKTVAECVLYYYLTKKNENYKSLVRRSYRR

LSD1 [5] = target: T2, LSD1; assay: LSD1 MALDI-TOF enzyme assay; format: biochemical; parameters: made in house; conditions: ± standard error, three independent measurements

IC50 (LSD1 [5]) | SMILES | IC50 (K-562) | IC50 (C-terminal His-tag-HDAC8) | wound healing capacity DU-145 (DU-145) | thermal stabilization of LSD1 (CETSA) (LSD1 [1]) | toxicity on normal RPE-1 cells (normal RPE-1 cells) | apoptosis by caspase activity, compound alone (THP-1 cells [2]) | apoptosis by annexin V/7-AAD staining, compound alone (THP-1 cells [3]) | ATM expression increase (THP-1 cells [4]; THP-1, 5 μM, 72 h) | ATR expression increase (THP-1 cells [4]; THP-1, 5 μM, 72 h) | expression of a panel of ABC transporters (THP-1 cells [4]; THP-1, 5 μM, 72 h) | expression of doxorubicin sensitizer genes (AGPAT9, ALOX5, BTG1, HIPK2, IFI44L, LRP1) (THP-1 cells [4]; THP-1, 5 μM, 72 h, all targets of Table 3 except Wnt7B) | Rad51 expression increase (THP-1 cells [4]; THP-1, 5 μM, 72 h, p ≤ 0.001) | p21 mRNA expression (THP-1 cells [4]) | IC50 (HDAC-3/NcoR2)
 | O=C(NO)c1ccc(CN2CCC(CN[C@@H]3C[C@H]3c3ccccc3)CC2)cc1 (relative stereo) [iDual] | 16.6 ± 2.7 µM | 0.29 ± 0.04 µM | slowed down | increased thermal stability | no significant toxicity | did not induce apoptosis | did not induce apoptosis | ~ two-fold | ~ two-fold | no decrease | upregulated | three-fold | increased | 2.29 ± 0.14 µM
> 100 µM | O=C(NO)c1ccc(CN2CCC(CNC3(c4ccccc4)CC3)CC2)cc1 [iHDAC6] | 17.6 ± 1.6 µM | 0.45 ± 0.07 µM |  |  |  |  |  |  |  |  |  |  | increased | 4.09 ± 0.26 µM

— publication PMC9737972, “Dual LSD1 and HDAC6 Inhibition Induces Doxorubicin Sensitivity in Acute Myeloid Leukemia Cells” (Cancers, 2022)
